This is an account of results in patent US20140288185A1, “NICOTINIC RECEPTOR NON-COMPETITIVE MODULATORS” (Targacept, Inc., priority 2011, published 2014).

Structures are written as SMILES.

The target of one assay is Nicotinic, human α4β2 (Homo sapiens, UniProt P17787+P43681). Kind of assay: Competition binding, human α4β2 nicotinic receptor ([3H]nicotine). On the procedure:
(§1) SH-EP1-human α4β2 (Eaton et al., 2003), cell lines were obtained from Dr. Ron Lukas (Barrow Neurological Institute). Cells were maintained in proliferative growth phase in Dulbecco's modified Eagle's medium (Invitrogen, Carlsbad, Calif.) with 10% horse serum (Invitrogen), 5% fetal bovine serum (HyClone, Logan Utah), 1 mM sodium pyruvate, 4 mM L-glutamine. For maintenance of stable transfectants, the α4β2 cell media was supplemented with 0.25 mg/mL zeocin and 0.13 mg/mL hygromycin B.
(§2) Cells were harvested in ice-cold PBS, pH 7.4, then homogenized with a Polytron (Kinematica GmbH, Switzerland). Homogenates were centrifuged at 40,000 g for 20 minutes (4° C.). The pellet was re-suspended in PBS and protein concentration determined using the Pierce BCA Protein Assay kit (Pierce Biotechnology, Rockford, Ill.).
(§3) Binding to nicotinic receptors was assayed on membranes using standard methods adapted from published procedures (Lippiello and Fernandes 1986; Davies et al., 1999). In brief, membranes were reconstituted from frozen stocks and incubated for 2 h on ice in 150 μl assay buffer (50 mM Tris, 154 mM NaCl, pH 7.4) in the presence of competitor compound (0.001 nM to 100 μM) and radioligand. [^3H]-nicotine (L-(−)-[N-methyl-^3H]-nicotine, 69.5 Ci/mmol, Perkin-Elmer Life Sciences, Waltham, Mass.) was used for human α4β2 binding studies. [^3H]-epibatidine (52 Ci/mmol, Perkin-Elmer Life Sciences) was used for binding studies at the other nicotinic receptor subtypes. Incubation was terminated by rapid filtration on a multimanifold tissue harvester (Brandel, Gaithersburg, Md.) using GF/B filters presoaked in 0.33% polyethyleneimine (w/v) to reduce non-specific binding. Filters were washed 3 times with ice-cold assay buffer and the retained radioactivity was determined by liquid scintillation counting.
(§4) Binding data were expressed as percent total control binding. Replicates for each point were averaged and plotted against the log of drug concentration. The IC50 (concentration of the compound that produces 50% inhibition of binding) was determined by least squares non-linear regression using GraphPad Prism software (GraphPAD, San Diego, Calif.). Ki was calculated using the Cheng-Prusoff equation (Cheng and Prusoff, 1973).

Another assay has as its target T1, Nicotinic, human α3β4 (Homo sapiens, UniProt P30926+P32297).
T1 construct: host or cells: CHO
Kind of assay: Competition binding, human α3β4 nicotinic receptor (CHO human α3β4 membranes). On the procedure:
(§5) CHO-human α3β4 cells (obtained from ChanTest, Cleveland, Ohio, catalog #CT6021) were maintained in proliferative growth phase in Ham's F12 (VWR) with 10% fetal bovine serum (Invitrogen), 0.25 mg/mL geneticin; 0.4 mg/ml zeocin. The amino acid sequences encoded by the transfected cDNA constructs used to generate the CHO-human α3β4 cells are identical to the translated sequences for GenBank accession numbers NM_000743.2 and NM_000750.3, respectively.
as §2, §3, §4

Another assay concerns the target T2, Nicotinic, human α3β4α5 (Homo sapiens, UniProt P30532+P30926+P32297).
T2 construct: endogenous in cells; host or cells: SH-SY5Y human neuroblastoma cells
Kind of assay: Competition binding, human ganglion nicotinic receptor (SH-SY5Y membranes). The method, then: as §2, §3, §4

In a further assay the target is human α4β2 (HS) (Homo sapiens, UniProt P17787+P43681). The assay can be described thus: Calcium flux inhibition, SH-EP1-human α4β2 treated at 29° C. (HS). The format is cell-based. The conditions noted are these: for Human α4β2 Ca Flux Imax [29C/HS]: 29° C.-treated cells (HS), nicotine 1 μM. On the procedure:
as §1
(§6) Forty-eight hours prior to each experiment, cells were plated in 96 well black-walled, clear bottom plates (Corning, Corning, N.Y.) at 60-100,000 cells/well. On the day of the experiment, growth medium was gently removed, 200 μL 1×FLIPR Calcium 4 Assay reagent (Molecular Devices, Sunnyvale, Calif.) in assay buffer (20 mM HEPES, 7 mM TRIS base, 4 mM CaCl2, 5 mM D-glucose, 0.8 mM MgSO4, 5 mM KCl, 0.8 mM MgCl2, 120 mM N-methyl D-glucamine, 20 mM NaCl, pH 7.4 for SH-EP1-human α4β2 cells or 10 mM HEPES, 2.5 mM CaCl2, 5.6 mM D-glucose, 0.8 mM MgSO4, 5.3 mM KCl, 138 mM NaCl, pH 7.4 with TRIS-base for all other cell lines) was added to each well and plates were incubated at 37° C. for 1 hour (29° C. for the 29° C.-treated SH-EP1-human α4β2 cells). For inhibition studies, competitor compound (10 pM-10 μM) was added at the time of dye addition. The plates were removed from the incubator and allowed to equilibrate to room temperature. Plates were transferred to a FLIPR Tetra fluorometric imaging plate reader (Molecular Devices) for addition of compound and monitoring of fluorescence (excitation 485 nm, emission 525 nm). The amount of calcium flux was compared to both a positive (nicotine) and negative control (buffer alone). The positive control was defined as 100% response and the results of the test compounds were expressed as a percentage of the positive control. For inhibition studies, the agonist nicotine was used at concentrations of 1 μM for SH-EP1-human α4β2 treated at 29° C. (HS), 10 μM for SH-EP1-human α4β2 maintained at 37° C. (LS), and 20 μM for SH-SY5Y cells or CHO_human α3β4.

The next assay concerns the target human α4β2 (LS) (Homo sapiens, UniProt P17787+P43681). Kind of assay: Calcium flux inhibition, SH-EP1-human α4β2 maintained at 37° C. (LS). The following applies: for Emax: read-out: Human α4β2 Ca Flux Imax [37C/HS]. The format is cell-based. The method, then:
as §1
as §6, with “For inhibition studies, the agonist nicotine was used at concentrations of 1 μM for SH-EP1-human α4β2 treated at 29° C. (HS), 10 μM for SH-EP1-human α4β2 maintained at 37° C.” left out

A further assay addresses T3, human α3β4 (Homo sapiens, UniProt P30926+P32297).
T3 construct: host or cells: CHO
The assay can be described thus: Calcium flux inhibition, CHO-human α3β4 cells. It is filed as cell-based. The following applies: for Human CHO α3β4 Ca Flux Imax: nicotine 20 μM. The method, then:
as §5, §6

Assay [1] addresses T4, Human Ganglion (SH-SY5Y cells) (Homo sapiens, UniProt P30532+P30926+P32297).
T4 construct: endogenous in cells; host or cells: SH-SY5Y human neuroblastoma cells
The assay can be described thus: Calcium flux inhibition, human ganglion (SH-SY5Y cells). It is filed as cell-based. The following applies: SH-SY5Y cells, nicotine 20 μM; for IC50: read-out: Human Ganglion Ca Flux IC50. The method, then: as §6

For another assay, the target named is T5, Nicotinic, human α7 (Homo sapiens, UniProt P36544).
T5 construct: host or cells: CHO
Kind of assay: Competition binding, human α7 nicotinic receptor (CHO human α7 membranes). The following applies: [3H]TC-12018 0.5 nM. The method, then:
CHO-human α7 cells (obtained from ChanTest, Cleveland, Ohio, catalog #CT6201) were maintained in proliferative growth phase in Ham's F12 (VWR) with 10% fetal bovine serum (Invitrogen), 0.25 mg/mL geneticin; 0.4 mg/ml zeocin. The amino acid sequences encoded by the transfected cDNA constructs used to generate the CHO-human α7 cells are identical to the translated sequences for GenBank accession numbers NM_000746.4 (α7) and NM_024557.4 (hRIC3).
as §2
Binding to nicotinic receptors was assayed on membranes using standard methods adapted from published procedures (Lippiello and Fernandes 1986; Davies et al., 1999). […] Filters were washed 3 times with ice-cold assay buffer and the retained radioactivity was determined by liquid scintillation counting.
Binding data were expressed as percent total control binding. […] Ki was calculated using the Cheng-Prusoff equation (Cheng and Prusoff, 1973).

`CCCC12CCCC1(NC)C1CCC2C1` (stereo not shown): the Ki at Nicotinic, human α4β2 stood at 29 µM; at Nicotinic, human α3β4, 73 µM; on Nicotinic, human α3β4α5 it was 52 µM. Besides, the IC50 on human α4β2 (HS) was determined as 0.21 µM; at human α4β2 (LS), 0.17 µM; at human α3β4, 0.13 µM; in assay [1] it was 0.03 µM. Moreover, the “Human α4β2 Ca Flux Imax [29C/HS]” value at human α4β2 (HS) was 100 % inh. Further, the Emax on human α4β2 (LS) worked out at 96%. Also, on human α3β4, the “Human CHO α3β4 Ca Flux Imax” value is recorded as 96 % inh. In addition, the “Human Ganglion Ca Flux Imax” value in assay [1] is 98 % inh.

For `CN[C@@]12CCC[C@@H]1[C@H]1CC[C@@H]2C1`, the Ki at Nicotinic, human α4β2 turned out to be 51 µM; on Nicotinic, human α3β4 it was 80 µM; at Nicotinic, human α3β4α5 it was 70 µM. Further, the IC50 turned out to be 0.38 µM on human α4β2 (HS), 0.38 µM at human α4β2 (LS), 0.66 µM at human α3β4 and 0.49 µM in assay [1]. Further, the “Human α4β2 Ca Flux Imax [29C/HS]” value at human α4β2 (HS) is listed as 97 % inh. For the same molecule, the Emax on human α4β2 (LS) stood at 96%. Moreover, on human α3β4, the “Human CHO α3β4 Ca Flux Imax” value was 97 % inh. Further, the “Human Ganglion Ca Flux Imax” value in assay [1] is reported as 95 % inh.

In the case of `CC[C@@]12CCC[C@]1(NC)[C@H]1CC[C@@H]2C1`, the Ki at Nicotinic, human α4β2 worked out at 26 µM; at Nicotinic, human α7, 79 µM; on Nicotinic, human α3β4, 56 µM. Further, the IC50 on human α4β2 (HS) is 0.6 µM; at human α4β2 (LS), 5 µM; on human α3β4, 0.17 µM. The “Human α4β2 Ca Flux Imax [29C/HS]” value on human α4β2 (HS) was determined as 98 % inh. Also, at human α4β2 (LS), the Emax stood at 93%. Further, the “Human CHO α3β4 Ca Flux Imax” value at human α3β4 came to 97 % inh.
